Patent publication US7749969B2, “N- or C- terminally modified small peptides” (Zealand Pharma A/S, priority 2005, dated 2010)
Square brackets hold non-standard residues; d marks the D form. Peptide text beside a SMILES is read from it. * marks the point of attachment. Bz = O=C(c1ccccc1)*

Legend:
[1] = PAMPA-BBB permeability test (brain lipid artificial membrane); assay type: in vitro ADME; conditions: brain lipid 20% in dodecane; pH 7.4 buffer; 14 hr diffusion
From the text: The compounds of the invention show desirable pharmacokinetic profiles as evidenced from data obtained when testing the permeability of the compounds across a synthetic biomimetic membrane that resembles the blood brain barrier (PAMPA-BBB) and the compounds ability to inhibit the activity of cytochrome P 450 oxidase isozyme 3A4. Normally it is desirous to avoid having drugs targeting the cardiovascular systems and other non-CNS ailments such as osteoporosis being less able to cross the blood brain barrier and thus penetrate into the central nervous system.
Permeability test: Compounds in DMSO solution are added to pH 7.4 buffer in a 96 well plate (“donor”). The buffer is placed in contact with a 96 well filter plate in which the pours have been filled with an artificial membrane (2% phosphatidyl choline in dodecane). The top wells of the filter plate are filled with aqueous buffer (“acceptor”). Compound molecules diffuse into the artificial membrane and then into the acceptor buffer. After a 14 hr diffusion experiment, the donor and acceptor wells are measured on a UV plate reader and compared to a standard. The experiment is termed “PAMPA”. Permeability-BBB: The PAMPA experiment above is repeated using brain lipid (20% in dodecane) to provide a prediction of blood-brain barrier permeation by passive diffusion.

[2] = target: CYP 3A4 (Homo sapiens, UniProt P08684); assay: Cytochrome P450 oxidase (CYP) inhibition, fluorescent probe; assay type: in vitro ADME; conditions: recombinant human CYP isozyme 3A4
Chain of CYP 3A4 (P08684 whole entry): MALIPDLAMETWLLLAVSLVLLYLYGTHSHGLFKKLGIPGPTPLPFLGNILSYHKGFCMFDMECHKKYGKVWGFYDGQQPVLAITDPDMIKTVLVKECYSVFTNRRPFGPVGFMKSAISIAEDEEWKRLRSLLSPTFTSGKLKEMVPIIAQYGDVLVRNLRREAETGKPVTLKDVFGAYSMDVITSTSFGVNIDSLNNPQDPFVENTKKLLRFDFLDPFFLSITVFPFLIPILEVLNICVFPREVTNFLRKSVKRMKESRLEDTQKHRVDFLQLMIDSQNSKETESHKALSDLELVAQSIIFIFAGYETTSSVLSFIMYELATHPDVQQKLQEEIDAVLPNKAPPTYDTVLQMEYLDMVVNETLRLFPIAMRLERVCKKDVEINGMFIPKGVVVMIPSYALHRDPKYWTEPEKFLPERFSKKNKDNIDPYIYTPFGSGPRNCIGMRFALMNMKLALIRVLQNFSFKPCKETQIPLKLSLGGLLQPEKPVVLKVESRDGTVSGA
From the text: Cytochrome P450 enzymes (CYPs) constitute a superfamily of heme proteins involved in the metabolism of endogenous and exogenous compounds in living organisms. In particular, a number of CYP isozymes are important in the oxidative metabolism of drug molecules. Interactions with these enzymes could lead to altered pharmacokinetic parameters, such as half life, Cmax, or AUC of other co-administered drug molecules. To reduce this kind of interaction in vitro screening of drug candidates for inhibition of drug-metabolizing CYPs has been carried out.
Cytochrome P oxidase (CYP) Inhibition: The compound solution is added to a mixture of recombinant human CYP isozymes, NADPH regenerating solution, buffer, and “probe” compounds for each isozyme. The degree of reduction in the rate of metabolism of the probe to a fluorescent metabolite is an indication of the potential CYP inhibition of the test compound. The CYP 450 isozyme tested is 3A4.

[3] = tested on: calcium-induced arrhythmias; assay: Calcium-induced arrhythmia model (time lag to conduction block after CaCl2 infusion); assay type: in vivo, mouse; conditions: male NMRI mice; 1 nmol/kg i.v. 3 min before CaCl2 infusion; (tarr test compound − tarr vehicle)×100/tarr vehicle
Protocol: Peptides suitable for administration to cardiac cells can be identified in an in vivo model of calcium-induced arrhythmias according to the model of Lynch et al. (1981) J Cardiovasc. Pharmacol. 3:49-60. Mice (25-30 g) are anaesthetized with a neurolept anaesthetic combination and an i.v. cannula is inserted into the tail vein. A lead II ECG signal is recorded continuously by positioning a stainless steel ECG electrodes on the right forelimb and on the left hind limb. The ground electrode is placed on the right hind limb. The signal is amplified (×5.000-10.000) and filtered (0.1-150 Hz) via a Hugo Sachs Electronic model 689 ECG module. The analogue signal is digitized via a 12 bit data acquisition board (Data Translation model DT321) and sampled at 1000 Hz using the Notocord HEM 3.1 software for Windows NT. After a 10-minute equilibration period, the test sample of compound is injected into the tail vein. Mice pre-treated with buffer are tested as a measure of the control level in untreated animals. The injection volume is 100 μl in all experiments.
Infusion of CaCl2 (30 mg/ml, 0.1 ml/min≈100 mg/kg/min (calcium chloride-2-hydrate, Riedel-de Haën, Germany)) is started 3 min after i.v. administration of drug or vehicle. The time lag to onset of 2nd degree AV-block is determined as the time from the start of CaCl2 infusion until the first arrhythmic event occurs. An event of 2nd degree AV-block is defined as intermittent failure of the AV conduction characterised by a P-wave without the concomitant QRS complex.
Responses are expressed relative to the time until 2nd degree AV-block occurred in vehicle treated mice. The maximal effect of compounds (e.g., N- or C-terminally modified peptides of the invention, AAP, AAP10 or controls) is determined. […] Preferably, the compounds provide at least about 40% of the activity of AAP, for example at least about 50% of the activity of AAP, such as about 60% of the activity of AAP, for example at least about 70% of the activity of AAP, such as at least about 80% of the activity of AAP, for example at least about 90% of the activity of AAP, for example at least about substantially the same activity of AAP, such as about 110% of the activity of AAP, for example at least about 120% of the activity of AAP, such as at least about 130% of the activity of AAP, for example at least about 140% of the activity of AAP, such as about 150% of the activity of AAP, for example at least about 160% of the activity of AAP, such as at least about 170% of the activity of AAP, for example at least about 180% of the activity of AAP, preferably at least about 190% of the activity of AAP, more preferably at least about 200 or greater % of the activity of AAP (i.e., the compounds show time lags of approximately the same duration as induced by AAP).
The anti-arrhythmic effect of the present compounds was tested in a model of calcium-induced arrhythmias according to the model of Lynch et al., J. Cardiovasc. Pharmacol. (1981), 3: 49-60. Male NMRI mice (25-30 grams; Bomholdtgaard, L I. Skendsved, Denmark) were anesthetized with a neurolept anesthetic combination (Hynorm® (fentanyl citrate 0.315 mg/mL and fuanisone 10 mg/mL) and midazolam at 5 mg/mL. Commercial solutions of Hynorm® and midazolam were diluted 1:1 in distilled water, and one part Hynorm® was mixed with one part diluted midazolam. Anesthesia is induced by s.c. administration of this solution in a dose of 50-75 μL/10 gram mouse.
An intravenous cannula was inserted into the tail vein. The lead II ECG signal was recorded continuously by positioning of stainless steel ECG electrodes on the right forelimb and on the left hind limb. The ground electrode was placed on the right hind limb. The signal was amplified (×5.000-10.000) and filtered (0.1-150 Hz) via a Hugo Sachs Electronic model 689 ECG module. […]

| Molecule | PAMPA-BBB [1] | CYP450 Inhibition at 3 μM (% Inhibition) CYP 3A4 [2] | % response (increase of time lag to onset of arrhythmias relative to vehicle) [3] |
| --- | --- | --- | --- |
| COCC(=O)N[C@@H](CC(N)=O)C(=O)N[C@@H](Cc1ccc(O)cc1)C(N)=O [Compound 16, (Methoxyacetyl)-Asn-Tyr-NH2] | 0 10^−6 cm/s | <15 % Inhibition |  |
| COc1ccc(CNC(=O)C[C@H](N)C(=O)N[C@H](C)C(=O)O)cc1 [WO2004/048400 80, H-Asn(4-methoxybenzyl)-DAla-OH, reference compound] |  | 15–25 % Inhibition |  |
| CC(=O)OCC(=O)N[C@@H](CC(N)=O)C(=O)N[C@@H](Cc1ccc(O)cc1)C(N)=O [Compound 8] | 0 10^−6 cm/s | <15 % Inhibition | 16.5% |
| N[C@H](CCCCNC(=O)c1ccccc1)C(=O)NCC(=O)O [WO2004/048400 23, H-DLys(benzoyl)-G-OH, reference compound] (H-[dK](Bz)-Gly-OH) |  | 15–25 % Inhibition |  |
| NC(=O)CNC(=O)[C@H](CC(N)=O)NC(=O)Cc1cc(=O)oc2cc(O)ccc12 [Compound 1, N-(7-hydroxycoumarin-4-acetyl)-Asn-Gly-NH2] |  |  | 20.9% |
| NCC(=O)N[C@@H](CC(N)=O)C(=O)NCc1ccc2ccc3cccc4ccc1c2c34 [Compound 12, H-Gly-Asn-NH(pyrenylmethyl)] | 0 10^−6 cm/s | <15 % Inhibition | 38.0% |
| CN(CC(=O)O)C(=O)[C@@H](N)CCCCNC(=O)c1ccc([N+](=O)[O-])cc1 [WO2004/048400 8, H-K(4-nitrobenzoyl)-Sar-OH, reference compound] |  | 15–25 % Inhibition |  |
| NC(=O)[C@H](Cc1ccc(O)cc1)NC(=O)CNC(=O)CO [Compound 2, N-(hydroxyacetyl)-Gly-Tyr-NH2] |  |  | 48.7% |
| N[C@@H](CCCCNC(=O)c1ccc([N+](=O)[O-])cc1)C(=O)NCC(=O)O [WO2004/048400 7, H-K(4-nitrobenzoyl)-G-OH, reference compound] |  | 15–25 % Inhibition |  |
| H-Gly-Asn-NH(4-nitrophenyl) [Compound 10] | 0 10^−6 cm/s | <15 % Inhibition | 38.0% |
| NC(=O)C[C@@H](NC(=O)Cc1cc(=O)oc2cc(O)ccc12)C(=O)NCC(=O)O [Compound 15, N-(7-hydroxycoumarin-4-acetyl)-D-Asn-Gly-OH] |  |  | 28.5% |
| NC(=O)C[C@H](NC(=O)CS)C(=O)N[C@@H](Cc1ccc(O)cc1)C(N)=O [Compound 7, N-(thiohydroxyacteyl)-Asn-Tyr-NH2] | 0 10^−6 cm/s | <15 % Inhibition |  |
